We go through three compounds from ChEMBL document CHEMBL1136600, “Functional expression and characterization of EryA, the erythritol kinase of Brucella abortus, and enzymatic synthesis of L-erythritol-4-phosphate” (Bioorg Med Chem Lett, 2003).

Test [1] has as its system Brucella abortus. The test is described as follows: Kinetic parameter against EryA, erythritol kinase of brucella abortus expressed in Escherichia coli.
For test [2], the system named is Propionibacterium acidipropionici. Description: Kinetic parameters against EryA, erythritol kinase from Propionibacterium pentosaceum.
A short description of test [3]: Inhibition of 4-diphosphocytidyl-2-C-methyl-d-erythritol (CDP-ME) synthase.

On to `OC[C@@H](O)[C@@H](O)CO`, for which, in test [1], the Michaelis-Menten constant (Km) stood at 0.26 mM and the k cat worked out at 230 s⁻¹. Besides, the Michaelis constant (Km) in test [2] stood at 880 µM.

With `Nc1ncnc2c1ncn2[C@@H]1O[C@H](COP(=O)(O)OP(=O)(O)OP(=O)(O)O)[C@@H](O)[C@H]1O`, in test [1], the Michaelis-Menten constant (Km) was 9.8 mM and the k cat was 230 s⁻¹. Besides, in test [2], the Km was 4800 µM.

`C[C@@](O)(CO)[C@@H](O)COP(=O)(O)O` came in with an IC50 in test [3] of 1.36 mM.

As a reminder, the Km is the concentration of substrate that gives half-maximal velocity. As usually defined, the IC50 is the concentration that inhibits the measured activity by half. Low readings indicate greater potency in that assay, high ones weaker potency in that assay.
